Measurements from PubChem BioAssay AID651962 (The Scripps Research Institute Molecular Screening Center, 2012).
Calls of active or inactive are those of the source. No rule for the calls is given here.

Biological target: Receptor-interacting serine/threonine-protein kinase 2 (Homo sapiens) (UniProt O43353)
Experiment: RIPK2-NOD2 association inhibitors, IC50 – cell-based, fluorescence, late-stage follow-up (AID 651962)
Settings: cell-based NOD2-RIPK2 interaction, fluorescence read-out

Sequence of Receptor-interacting serine/threonine-protein kinase 2 (Homo sapiens) (O43353 whole entry, looked up): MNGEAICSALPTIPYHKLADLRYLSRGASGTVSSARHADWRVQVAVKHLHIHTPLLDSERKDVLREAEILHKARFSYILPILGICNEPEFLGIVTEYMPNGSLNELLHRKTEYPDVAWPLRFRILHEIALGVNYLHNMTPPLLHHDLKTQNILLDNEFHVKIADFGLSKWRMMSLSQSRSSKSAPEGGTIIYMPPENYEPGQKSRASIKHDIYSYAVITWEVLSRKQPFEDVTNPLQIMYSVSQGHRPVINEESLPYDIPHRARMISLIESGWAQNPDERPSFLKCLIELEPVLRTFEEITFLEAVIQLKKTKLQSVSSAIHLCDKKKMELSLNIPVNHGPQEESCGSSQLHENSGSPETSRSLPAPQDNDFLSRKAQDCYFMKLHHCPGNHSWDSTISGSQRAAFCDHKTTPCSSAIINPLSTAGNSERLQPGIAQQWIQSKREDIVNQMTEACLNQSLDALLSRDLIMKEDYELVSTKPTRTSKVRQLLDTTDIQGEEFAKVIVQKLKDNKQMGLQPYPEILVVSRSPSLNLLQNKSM

| SMILES | IC50 |
| --- | --- |
| COc1ccc(C(C[N+](=O)[O-])n2nc(C)cc2C)cc1 (stereo unspecified) | 3.81 µM |
| Cc1nc([N+](=O)[O-])c(Br)n1Cc1ccccc1 | inactive |
| O=[N+]([O-])c1cccc(S(=O)(=O)N2CCCCCC2)c1 | > 49.8 µM (inactive) |
| Cc1nc([N+](=O)[O-])c(Br)n1Cc1ccc(Cl)c(Cl)c1 | inactive |
| O=S(=O)(c1ccccc1)N1CCCCCC1 | > 49.8 µM (inactive) |
| Cc1ccc(S(=O)(=O)N2CCCCCC2)cc1[N+](=O)[O-] | > 49.8 µM (inactive) |
| Cc1ccc(C(C[N+](=O)[O-])n2nc(C)cc2C)cc1 (stereo unspecified) | 2.97 µM |

Now from value to compound:

| IC50 | SMILES |
| --- | --- |
| 8.04 µM | O=[N+]([O-])c1cc(S(=O)(=O)N2CCCCCC2)ccc1F |
| > 49.8 µM (inactive) | Cc1ncc([N+](=O)[O-])n1Cc1ccc(Cl)c(Cl)c1 |
| > 49.8 µM (inactive) | O=S(=O)(c1ccc(F)cc1)N1CCCCCC1 |
| > 49.8 µM (inactive) | Cc1cc(S(=O)(=O)N2CCCCCC2)ccc1F |
